Like-named read-outs stand apart in the source and are kept apart here.
Columns and labels:
TFIIIA [1] = target: T1, TFIIIA (Xenopus laevis, UniProt P03001); format: binding; set-up: Immature ovarian tissue was dissected from 4-5 cm female X. laevis frogs; from tissue; host or cells: immature ovarian tissue (oocytes) of Xenopus laevis; 7S particles, 5S RNA removed with RNase A; details: for concentration giving complete inhibition of TFIIIA binding: complete loss of DNase I protection and hypersensitivity; for TFIIIA zinc finger affected by xenobiotic: general statement; for concentration at which TFIIIA binding to the 5S RNA gene is inhibited: loss of DNase I protection, nucleotides +43 to +96, TFIIIA preincubated with metal; for reversibility of inhibition of TFIIIA binding: not overcome by added zinc ions; for inhibition of TFIIIA-5S RNA gene interaction: 10 μM, data not shown
Protocol: Inhibition of TFIIIA binding to the 5S ribosomal RNA gene was assayed by the DNase I protection method. In this assay, TFIIIA isolated from frogs, or as a recombinant protein, was incubated for a short period of time with a radioactively labeled double-stranded DNA fragment containing the 5S ribosomal RNA gene sequence (120 base-pairs in length). In TFIIIA's role in regulating ribosome synthesis, the protein birds specifically and tightly to this 5S gene sequence. When this occurs, the bound protein protects a large region of the 5S RNA gene from DNase I digestion. DNase I normally degrades the 5S gene and in the process generates a series of differently sized DNA fragments which can be resolved by electrophoresis. TFIIIA binding protects a DNA region comprising approximately 53 base pairs from DNase I degradation.
Cadmium and aluminum inhibition of TFIIIA binding was ascertained by observing the loss of this protected region from 5S gene nucleotides (+43 to +96).
The end-labeled fragment was ethanol precipitated, redigested with BamHI and the smaller fragment was purified by PAGE. Specific activity of the fragment was determined by absorbance at 260 nm and Cerenkov counting. To examine the effects of various metals on the TFIIIA-5S RNA gene interaction TFIIIA (10 nM) was incubated with the various metals (chloride salts of all metals were ultrapure grade and purchased from Aldrich; concentrations are indicated in the figure legends) in 20 mM Tris-HCl, pH 7.6, 70 mM NH4Cl, 7 mM MgCl2, 0.4 mM DTT and 0.1% NP-40 for 10 min prior to addition of the DNA fragment containing the end-labeled 5S RNA gene (1 nM). After addition of DNA the reaction (20 μl ) was incubated at room temperature for an additional 15 min. The reactions were then incubated for an additional 1 min in DNase I (2 μg/ml final concentration) and digestion was terminated by addition of 100 μl stop buffer (20 mM Tris-HCl, pH 7.6, 1 mM EDTA, 0.1% SDS, 30 μg/ml sonicated salmon sperm DNA). […] Gel autoradiography was performed overnight at −70° C. with Kodak XAR-5 film and a Dupont Cronex intensifying screen.
Target sequence in this assay (P03001 23-366): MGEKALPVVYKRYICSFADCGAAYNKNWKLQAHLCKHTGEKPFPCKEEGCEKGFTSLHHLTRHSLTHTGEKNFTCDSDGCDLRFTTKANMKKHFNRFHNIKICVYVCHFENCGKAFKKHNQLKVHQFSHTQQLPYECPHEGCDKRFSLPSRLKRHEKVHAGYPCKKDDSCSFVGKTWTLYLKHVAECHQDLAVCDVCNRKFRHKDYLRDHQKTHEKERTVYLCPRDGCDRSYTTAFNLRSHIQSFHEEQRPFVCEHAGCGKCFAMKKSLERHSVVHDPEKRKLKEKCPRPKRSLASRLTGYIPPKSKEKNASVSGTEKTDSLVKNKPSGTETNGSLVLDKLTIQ

TFIIIA [2] = target: T1, TFIIIA; test: TFIIIA-dependent DNA renaturation assay; format: biochemical; set-up: Immature ovarian tissue was dissected from 4-5 cm female X. laevis frogs; from tissue; host or cells: immature ovarian tissue (oocytes) of Xenopus laevis; 7S particles, 5S RNA removed with RNase A
Target sequence in this assay (P03001 23-366): as above
Protocol: DNA migration in the Tris-phosphate agarose gel electrophoresis system used in the DNA renaturation assay is sensitive to some types of DNA structural changes. This assay is useful in this study because it can detect structural changes in the nanomolar DNA concentration range.
DNA renaturation (hybridization of complementary single-stranded DNA) was assayed by binding 20 nM Xenopus TFIIIA to 2 nM heat-denatured ^32P labeled 5S gene DNA for 15 min. Reactions are terminated by detergent and electrophoresed on an agarose gel which resolves the slower migrating single-stranded DNA (s.s.) from the faster migrating double-stranded DNA (d.s.) DNA bands are visualized by autoradiography. […] DNA migration in the absence and presence of cadmium.
TFIIIA isolation, ^32P-end-labeling of the 5S RNA gene, denaturation and renaturation reactions, Tris-phosphate agarose gel electrophoresis and autoradiography were performed as described above in the methodology section herein. […]

estrogen receptor (ER) [3] = details: hormone-bound estrogen receptor; cited from earlier work
estrogen receptor (ER) [4] = details: cited from earlier work
TFIIIA [5] = target: T1, TFIIIA; details: excitation 360 nanometers
Protocol: Zinc is then removed from TFIIIA (- ZINC sample) by incubation with the zinc chelator, ethylenediamine tetraacetic acid (EDTA). Relative emission fluorescent intensity spectra of the TFIIIA-bound AEDANS probe are recorded using an excitation wavelength of 360 nanometers.
Target sequence in this assay (P03001 23-366 limits assumed): as the sequence (P03001 23-366) above

[Cl][Al]([Cl])[Cl] [Al^3+, AlCl3]
inhibitory concentration relative to that for Cd2+ (TFIIIA [1]; Al3+ versus Cd2+): about 50 fold | concentration giving slight inhibition of TFIIIA binding (TFIIIA [1]; FIG. lane 3): 1 µM | concentration giving complete inhibition of TFIIIA binding (TFIIIA [1]): 5 to 7 µM | TFIIIA zinc finger affected by xenobiotic (TFIIIA [1]): affected | concentration at which TFIIIA binding to the 5S RNA gene is inhibited (TFIIIA [1]): 3 µM | reversibility of inhibition of TFIIIA binding (TFIIIA [1]): irreversible | inhibition of TFIIIA-dependent DNA renaturation (TFIIIA [2]; TFIIIA preincubated with 50 μM AlCl3 (panel B)): Inhibition of TFIIIA-dependent renaturation

[AsH3] [Arsenic, NaH2AsO4]
inhibition of TFIIIA zinc finger binding to DNA (TFIIIA [1]; preincubated with 0.1, 0.5 or 1.0 mM NaH2AsO4): does not inhibit

[Cl][Cd][Cl] [Cd^2+, CdCl2]
concentration inhibiting DNA binding by activated receptors (estrogen receptor (ER) [3]): 1 mM | concentration inhibiting initial binding of hormone to receptor (estrogen receptor (ER) [4]): 0.1 mM | in vitro inhibitory concentration relative to serum concentration in moderate to heavy smokers (TFIIIA [1]; 0.1 μM Cd2+ for TFIIIA): approximately 5 fold | inhibitory molecules of metal ion per TFIIIA molecule (TFIIIA [1]; at 0.1 μM Cd2+): < 10 molecules per TFIIIA molecule | concentration giving complete inhibition of TFIIIA binding (TFIIIA [1]): 0.25 µM | TFIIIA zinc finger affected by xenobiotic (TFIIIA [1]): affected | concentration at which TFIIIA binding to the 5S RNA gene is inhibited (TFIIIA [1]): 0.1 µM | reversibility of inhibition of TFIIIA binding (TFIIIA [1]): irreversible | inhibition of TFIIIA-dependent DNA renaturation (TFIIIA [2]; TFIIIA 10, 20 or 30 nM preincubated with 1 μM CdCl2): inhibition of DNA renaturation

[Cl-].[Cs+] [Cs^2+]
inhibition of TFIIIA-5S RNA gene interaction (TFIIIA [1]): non-inhibitory | TFIIIA zinc finger affected by xenobiotic (TFIIIA [1]): not

O=C(O)CN(CCN(CC(=O)O)CC(=O)O)CC(=O)O [EDTA, ethylenediamine tetraacetic acid]
emission wavelength after zinc removal (TFIIIA [5]; blue shift from 485 nanometers): 478 nanometers | increase of emission fluorescence intensity (TFIIIA [5]; zinc removed from TFIIIA by EDTA): 25%

[Cl-].[Cl-].[Mg+2] [Mg^2+]
inhibition of TFIIIA-5S RNA gene interaction (TFIIIA [1]): non-inhibitory

[Cl][Mn][Cl] [Mn^2+]
inhibition of TFIIIA-5S RNA gene interaction (TFIIIA [1]): non-inhibitory | TFIIIA zinc finger affected by xenobiotic (TFIIIA [1]): not

O=[Se]([O-])[O-].[Na+].[Na+] [Na2SeO3]
TFIIIA zinc finger affected by xenobiotic (TFIIIA [1]): affected | concentration at which TFIIIA binding to the 5S RNA gene is inhibited (TFIIIA [1]): ≥ 25 µM

[Cl][Pb][Cl] [PbCl2]
TFIIIA zinc finger affected by xenobiotic (TFIIIA [1]): affected | concentration at which TFIIIA binding to the 5S RNA gene is inhibited (TFIIIA [1]): ≥ 10 µM

HgCl2 [Mercury]
TFIIIA zinc finger affected by xenobiotic (TFIIIA [1]): not | inhibition of TFIIIA zinc finger binding to DNA (TFIIIA [1]; preincubated in 5, 10, 15, 20 μM HgCl2): does not inhibit
